Test results reported in patent US8445536B2, “Arginine-containing compositions and methods for increasing blood flow using same” (Ajinomoto Co., Inc., priority 2005, dated 2013).
Where two headings read alike, the source gives them in different places.

Experiments:
[1] = Test Example 3: concentration of free arginine in the blood plasma on intravenous arginine; type: in vivo, rats; conditions: for concentration at 10 min / concentration at 20 min / concentration at 30 min / concentration at 40 min: Sprague-Dawley, rat, plasma, iv
Description: (c) Rats were anesthetized by pentobarbital. […] (b) Administration: […]

male SD rats [2] = test: Test Example 1: blood pressure when administering arginine to rats (arterial catheter); conditions: 500 mg of arginine per 1 kg body weight, iv over 30 min
male SD rats [3] = test: Test Example 4: blood pressure when administering arginine and glutamine to rats; conditions: 50 mg arginine/kg over 30 min; 20 to 30 min after injection; average of 3 rats
male SD rats [4] = test: Test Example 2: blood flow in the capillaries of various organs, microsphere method
Description: (b) Operation: Catheters were inserted into the carotid artery, jugular vein, and femoral artery of rats under anesthesia.
After taking enough time from the second administration of the microsphere, the rats were euthanasized, and the muscles, digestive tracts, liver, kidneys, spleen, heart, brain, adipose tissues, and abdominal skin were extracted. Then, the microspheres contained in each organ were collected and the rate of change in blood flow was calculated for each organ from the amount of the microspheres.

male SD rats [5] = test: Test Example 5: amounts of Evans' Blue delivered to various organs after arginine
Description: (b) Operation: A catheter was inserted into the jugular vein of rats under anesthesia. Then, a blood sample was collected from the catheter.
After sufficient time, the rats were euthanasized, and the muscles, digestive tracts, liver, kidneys, spleen, heart, brain, adipose tissues, and abdominal skin were extracted. Then, Evans' Blue was released by immersing each organ in a formalin solution, and the amount of Evans' Blue in each organ was calculated from the absorbance obtained by the spectrophotometer.

human beings = human beings of average weight 78 kg, cited from earlier work
male SD rats [6] = test: Test Example 2: variation of blood pressure; conditions: 50 or 150 mg of arginine per 1 kg body weight, iv over 30 min
male SD rats [7] = test: Test Example 1: blood flow at the skin of the lower thighs, laser Doppler blood-flowmeter; conditions: for Maximum increasing rate of blood flow (Before administration: 100%): skin of lower thighs
[8] = 50 mg of arginine per 1 kg body weight
[9] = 150 mg of arginine per 1 kg body weight

With `N=C(N)NCCC[C@H](N)C(=O)O` [arginine] the “rise of the concentration of free arginine in the blood plasma at maximum” value [1, 8] was 46.1 micrograms per 1 mL, the “rise of the concentration of free arginine in the blood plasma at maximum” value [1, 9] was 177.5 micrograms per 1 mL and the concentration at 10 min ([1]; 50 mg/kg) was 43.6 µg/mL. The concentration at 20 min ([1]; 50 mg/kg) was 46.1 µg/mL, the concentration at 30 min ([1]; 50 mg/kg) was 38.8 µg/mL and the concentration at 40 min ([1]; 50 mg/kg) was 15.7 µg/mL. For the same compound, the concentration at 10 min ([1]; 150 mg/kg) was 156 µg/mL, the concentration at 20 min ([1]; 150 mg/kg) was 115 µg/mL and the concentration at 30 min ([1]; 150 mg/kg) was 178 µg/mL. The concentration at 40 min ([1]; 150 mg/kg) was 77.2 µg/mL, the “death due to rapid reduction of blood pressure” value (male SD rats [2]) was “Two out of three rats died” and the “Maximum variation of blood pressure” value (male SD rats [3]) was “+11.4 mmHg”. For the same compound, the “blood flow in the capillaries of the muscles and the brain” value (male SD rats [4]; [8]) was “significantly increased”, the “blood flow in the capillaries, all organs measured” value (male SD rats [4]; [9]) was “increased for all organs measured” and the “Changes in blood flow after the administration of arginine (before administration 100%)” value (male SD rats [4]; Abdominal skin, 50 mg/kg of body weight) was 117%. The “Changes in blood flow after the administration of arginine (before administration 100%)” value (male SD rats [4]; Abdominal skin, 150 mg/kg of body weight) was 134%, the “Changes in blood flow after the administration of arginine (before administration 100%)” value (male SD rats [4]; Adipose tissues, 50 mg/kg of body weight) was 99% and the “Changes in blood flow after the administration of arginine (before administration 100%)” value (male SD rats [4]; Adipose tissues, 150 mg/kg of body weight) was 116%. The “Changes in blood flow after the administration of arginine (before administration 100%)” value (male SD rats [4]; Back skin, 50 mg/kg of body weight) was 107%, the “Changes in blood flow after the administration of arginine (before administration 100%)” value (male SD rats [4]; Back skin, 150 mg/kg of body weight) was 118% and the “Changes in blood flow after the administration of arginine (before administration 100%)” value (male SD rats [4]; Brain, 50 mg/kg of body weight) was 126%. For the same compound, the “Changes in blood flow after the administration of arginine (before administration 100%)” value (male SD rats [4]; Brain, 150 mg/kg of body weight) was 137%, the “Changes in blood flow after the administration of arginine (before administration 100%)” value (male SD rats [4]; Duodenum, 50 mg/kg of body weight) was 123% and the “Changes in blood flow after the administration of arginine (before administration 100%)” value (male SD rats [4]; Duodenum, 150 mg/kg of body weight) was 142%. For the same compound, the “Changes in blood flow after the administration of arginine (before administration 100%)” value (male SD rats [4]; Heart, 50 mg/kg of body weight) was 126%, the “Changes in blood flow after the administration of arginine (before administration 100%)” value (male SD rats [4]; Heart, 150 mg/kg of body weight) was 140% and the “Changes in blood flow after the administration of arginine (before administration 100%)” value (male SD rats [4]; Kidneys, 50 mg/kg of body weight) was 86%. The “Changes in blood flow after the administration of arginine (before administration 100%)” value (male SD rats [4]; Kidneys, 150 mg/kg of body weight) was 91%, the “Changes in blood flow after the administration of arginine (before administration 100%)” value (male SD rats [4]; Liver, 50 mg/kg of body weight) was 92% and the “Changes in blood flow after the administration of arginine (before administration 100%)” value (male SD rats [4]; Liver, 150 mg/kg of body weight) was 101%. The “Changes in blood flow after the administration of arginine (before administration 100%)” value (male SD rats [4]; Muscles, 50 mg/kg of body weight) was 164%, the “Changes in blood flow after the administration of arginine (before administration 100%)” value (male SD rats [4]; Muscles, 150 mg/kg of body weight) was 157% and the “Changes in blood flow after the administration of arginine (before administration 100%)” value (male SD rats [4]; Spleen, 50 mg/kg of body weight) was 104%. For the same compound, the “Changes in blood flow after the administration of arginine (before administration 100%)” value (male SD rats [4]; Spleen, 150 mg/kg of body weight) was 115%, the “delivered amounts of Evans' Blue to the organs (tendency)” value (male SD rats [5]; 50 or 150 mg of arginine per 1 kg, muscles, digestive tract, liver, kidneys, spleen, brain, adipose tissues, skin) was “increased” and the “Changes in the amounts of Evans' Blue after administering arginine (before administration 100%)” value (male SD rats [5]; Abdominal skin, 150 mg/kg of BW) was 207%. The “Changes in the amounts of Evans' Blue after administering arginine (before administration 100%)” value (male SD rats [5]; Adipose tissues, 50 mg/kg of BW) was 430%, the “Changes in the amounts of Evans' Blue after administering arginine (before administration 100%)” value (male SD rats [5]; Adipose tissues, 150 mg/kg of BW) was 160% and the “Changes in the amounts of Evans' Blue after administering arginine (before administration 100%)” value (male SD rats [5]; Back skin, 50 mg/kg of BW) was 315%. For the same compound, the “Changes in the amounts of Evans' Blue after administering arginine (before administration 100%)” value (male SD rats [5]; Back skin, 150 mg/kg of BW) was 331%, the “Changes in the amounts of Evans' Blue after administering arginine (before administration 100%)” value (male SD rats [5]; Brain, 50 mg/kg of BW) was 169% and the “Changes in the amounts of Evans' Blue after administering arginine (before administration 100%)” value (male SD rats [5]; Duodenum, 50 mg/kg of BW) was 143%. The “Changes in the amounts of Evans' Blue after administering arginine (before administration 100%)” value (male SD rats [5]; Duodenum, 150 mg/kg of BW) was 85%, the “Changes in the amounts of Evans' Blue after administering arginine (before administration 100%)” value (male SD rats [5]; Gastrocnemius muscle, 50 mg/kg of BW) was 219% and the “Changes in the amounts of Evans' Blue after administering arginine (before administration 100%)” value (male SD rats [5]; Gastrocnemius muscle, 150 mg/kg of BW) was 154%. For the same compound, the “Changes in the amounts of Evans' Blue after administering arginine (before administration 100%)” value (male SD rats [5]; Heart, 50 mg/kg of BW) was 87%, the “Changes in the amounts of Evans' Blue after administering arginine (before administration 100%)” value (male SD rats [5]; Heart, 150 mg/kg of BW) was 85% and the “Changes in the amounts of Evans' Blue after administering arginine (before administration 100%)” value (male SD rats [5]; Kidneys, 50 mg/kg of BW) was 161%. For the same compound, the “Changes in the amounts of Evans' Blue after administering arginine (before administration 100%)” value (male SD rats [5]; Liver, 50 mg/kg of BW) was 181%, the “Changes in the amounts of Evans' Blue after administering arginine (before administration 100%)” value (male SD rats [5]; Liver, 150 mg/kg of BW) was 173% and the “Changes in the amounts of Evans' Blue after administering arginine (before administration 100%)” value (male SD rats [5]; Spleen, 50 mg/kg of BW) was 101%. For the same compound, the “Changes in the amounts of Evans' Blue after administering arginine (before administration 100%)” value (male SD rats [5]; Spleen, 150 mg/kg of BW) was 92%, the vascular resistance (human beings; 6 g arginine parenterally) was “did not cause either effect” and the vascular resistance (human beings; 30 g arginine parenterally) was “lowered”. The “variation of blood pressure” value (male SD rats [6]) was ≤ 10 mmHg, the “Maximum increasing rate of blood flow (Before administration: 100%)” value (male SD rats [7]; 50 mg arginine/kg iv over 30 min, 20 to 30 min after injection) was “+43.9%” and the “Maximum increasing rate of blood flow (Before administration: 100%)” value (male SD rats [7]; 150 mg arginine/kg iv over 30 min, 20 to 30 min after injection) was “+29.3%”. For the same compound, the “Maximum increasing rate of blood flow (Before administration: 100%)” value (male SD rats [7]; 500 mg arginine/kg iv over 30 min, 50 to 60 min after injection) was “+85.0%” and the “amount of blood flowing to the skin of the lower thighs” value (male SD rats [7]; all rats given 50 mg or more of arginine per 1 kg body weight) was “increased”.
